One experiment concerns the target IDO in HeLa cells (Homo sapiens (Human), UniProt P14902). The experiment can be described thus: Inhibition activity on IDO in HeLa cells (INF-γ induced). The class given is cell-based. Conditions: HeLa cells, INF-γ and tryptophan, 48 hours; read-out: IC50 for inhibiting the activity of IDO in HeLa cells. The procedure: Assay for Determining the Inhibition Activity of the Present Compounds on IDO in HeLa Cells
IDO activity in HeLa cells was tested in vitro by the following method.
This method is used to determine the inhibition effect of the compounds of the present invention on the activity of IDO in HeLa cells. (Note: indoleamine 2,3-dioxygenase (IDO) is expressed in the HeLa cell line and induced by interferon gamma (INF-γ)).
The supernatant was removed, serum-free DMEM high glucose medium was added at 90 μL/well, then the compounds contained in the culture medium with INF-γ and tryptophan were added at 10 μL/well (the final concentrations: 10000, 1000, 100, 10, 1, 0.1 nM). […] Then, 80 μL of the supernate was transferred from the 96-well cell culture plate to a 96 well round-bottomed plate, then 30% (W/V) trichloroacetic acid was added at 16 μL/well, then the mixture was incubated for 25 minutes at 65° C. in an incubator. The reaction plate was centrifuged in a centrifuge for 5 minutes at 4700 RPM. Then, 50 μL of the supernatant was transferred from the reaction plate to a 96-well flat-bottomed transparent plate by a multi-channel pipette. Then, 2% (W/V) 4-(dimethylamino)benzaldehyde/glacial acetic acid solution was added at 50 μL/well, then the mixture was mixed uniformly for 1 minute on a shaker. After incubation for 2 minutes at room temperature, the absorbance at 480 nm was read on a Synergy HT Reader.
The inhibition activity of the compounds of the present invention on IDO in HeLa cells was tested by the assay described above.

The target of the next experiment is human TDO (Homo sapiens (Human), UniProt P48775). The experiment can be described thus: Inhibition activity on human TDO (tryptophan 2,3-dioxygenase) (enzyme assay, absorbance at 480 nm). Conditions: read-out: IC50 for inhibiting the activity of human TDO. The class given is biochemical. The procedure: Assay for Determining the Inhibition activity of the Compounds of the Present Invention on Human TDO (tryptophan 2,3-dioxygenase)
Human TDO activity was tested in vitro by the following method.
This method is used to determine the inhibition effect of the compounds of the present invention on the activity of human TDO.
Plasmids constructed with the human TDO gene were transferred to competent Escherichia coli Rosseta. The TDO gene was scaled-up by culturing in liquid LB (Luria-Bertani) medium [which was prepared per liter according to “Molecular Cloning A Laboratory Manual” (J. Sambrook, D. W. Russell)]). The bacteria were collected and lysed by ultrasonic waves. The purified TDO was obtained by eluting from a column.
For testing, 24 μL of enzyme (TDO) was diluted 100 times with 50 mM KPB to 2400 μL. The concentration of the enzyme solution was 2.6 ng/μL. A 96 well reaction plate (AXYGEN, PCR-96-FLT-C) (hereinafter referred to as the “reaction plate”) was added with the enzyme solution at 24 μL/well. The blank well was added with 24 μL of KPB [Preparation of KPB buffer (50 mM): 6.805 g of KH2PO4 was weighed using an analytical balance, and placed into a 1000 mL beaker, deionized water was added with a measuring cylinder to 900 mL, the pH was adjusted to 6.5 by 1M KOH, then the mixture was introduced into a 1 L measuring cylinder, and water was added to 1 L. It was stored at 4° C.]. Then, 1 μL of a compound or DMSO was added into the corresponding wells in the reaction plate. Preparation of solution A: 200 μL of 500 mM L-sodium ascorbate was added with 1050 μL of KPB, then the mixture was mixed uniformly for 3 seconds at the maximum speed in a turbine mixer. Solution B: 100 μL of 10 mM tryptophan was added with 100 μL of 100,000 unit/ml catalase, 5 μL of 10 mM methylene blue, and 1050 μL of KPB successively, then the mixture was mixed uniformly for 3 seconds at the maximum speed in a turbine mixer. Then, 1200 μL of solution A and 1200 μL of solution B were taken and mixed uniformly for 3 seconds at the maximum speed in a turbine mixer. The mixture was added to the reaction plate at 24 μL/well. The reaction plate was placed in a plate centrifuge and centrifuged for 15 seconds at the maximum speed, so that the reaction liquids converged to the bottom. The reaction mixture was mixed uniformly for 30 seconds on a shaker, and incubated for 1 hour at 37° C. in a constant temperature incubator. In the reaction plate, 30% (W/V) trichloroacetic acid was added at 10 μL/well, then the mixture was incubated for 15 minutes at 65° C. in a incubator. The reaction plate was centrifuged in a centrifuge for 5 minutes at 4700 RPM at room temperature. […] Then, 2% (W/V) 4-(dimethylamino)benzaldehyde/glacial acetic acid solution was added at 40 μL/well, then the mixture was mixed uniformly for 1 minute on a shaker at the maximum speed. After incubation for 2 minutes at room temperature, the absorbance at 480 nm was read on a Synergy HT Reader.
The inhibition activity of the compounds of the present invention on human TDO was tested by the assay described above.

Structures can show the parent of a compound that is named as a salt. Where two headings read alike, the source gives them in different places.

Consider two molecules from patent US10899764B2, “Imidazo isoindole derivative, preparation method therefor and medical use thereof” (Jiangsu Hengrui Medicine Co., Ltd., priority 2015, dated 2021).

Sequence of human TDO (P48775 whole entry): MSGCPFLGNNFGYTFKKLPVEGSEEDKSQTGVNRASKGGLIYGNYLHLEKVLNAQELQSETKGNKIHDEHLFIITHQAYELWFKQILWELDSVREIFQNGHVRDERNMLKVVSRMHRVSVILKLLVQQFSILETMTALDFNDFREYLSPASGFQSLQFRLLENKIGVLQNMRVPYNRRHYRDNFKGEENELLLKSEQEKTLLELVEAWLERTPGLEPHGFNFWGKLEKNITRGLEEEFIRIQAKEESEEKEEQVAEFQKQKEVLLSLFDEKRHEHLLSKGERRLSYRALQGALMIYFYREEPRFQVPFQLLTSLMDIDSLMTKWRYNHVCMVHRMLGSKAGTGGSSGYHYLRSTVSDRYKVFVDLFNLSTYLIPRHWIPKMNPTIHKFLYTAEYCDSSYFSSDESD
Sequence of IDO in HeLa cells (P14902 whole entry): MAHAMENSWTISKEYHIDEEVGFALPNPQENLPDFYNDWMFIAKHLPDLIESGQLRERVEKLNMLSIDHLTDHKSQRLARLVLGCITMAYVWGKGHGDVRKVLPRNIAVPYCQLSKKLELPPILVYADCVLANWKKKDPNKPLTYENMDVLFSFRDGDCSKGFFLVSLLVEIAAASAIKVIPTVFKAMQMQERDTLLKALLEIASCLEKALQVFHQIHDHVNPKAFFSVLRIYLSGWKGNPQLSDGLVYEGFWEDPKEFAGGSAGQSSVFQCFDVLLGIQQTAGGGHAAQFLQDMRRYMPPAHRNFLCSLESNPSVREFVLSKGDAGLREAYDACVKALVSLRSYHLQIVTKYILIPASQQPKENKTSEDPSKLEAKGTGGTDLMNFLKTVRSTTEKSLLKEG

Take `Fc1cccc(N2CCC(C3c4c(F)cccc4-c4cncn43)CC2)c1` (stereo not shown) [Example 3, 6-fluoro-5-(1-(3-fluorophenyl)piperidin-4-yl)-5H-imidazo[5,1-a]isoindole trifluoroacetate]: the IC50 (as a rule, the concentration that gives 50% inhibition) on IDO in HeLa cells was found to be 167 nM; at human TDO it was 371 nM.
As to `OCCn1cc(-c2ccc(N3CCC([C@H]4c5c(F)cccc5-c5cncn54)CC3)cc2)cn1` [Example 41, (S)-2-(4-(4-(4-(6-fluoro-5H-imidazo[5,1-a]isoindol-5-yl)piperidin-1-yl)phenyl)-1H-pyrazol-1-yl)ethanol], the IC50 was 47.7 nM on IDO in HeLa cells and 42 nM at human TDO (purified recombinant human TDO, 1 hour at 37° C.).
